Reference: US8318793B2, “Heterocyclic compounds and their use as glycogen synthase kinase-3 inhibitors” (Abbott GmbH & Co. KG, priority 2009, dated 2012)

Molecular target: T1, human Glycogen Synthase Kinase-3 beta (hGSK-3β) (Homo sapiens, UniProt P49841)
T1 construct: purchased Upstate cell signaling solutions
Assay: Biochemical hGSK-3beta assay (33P-ATP phosphorylation of biotinylated peptide substrate)
Details: 10 μM ATP, 30 minutes at room temperature; read-out: GSK-3β IC50
Protocol: Methods—Biochemical hGSK-3beta Assay
Compounds were tested for their ability to inhibit human Glycogen Synthase Kinase-3 beta (hGSK-3β) to phosphorylate biotin-[…](pS)EDEEE. Compounds were incubated with 0.5 μCi 33P-ATP, 10 μM ATP, 0.0125U hGSK-3β (Upstate cell signaling solutions) and 1 μM substrate (biotin-[…](pS)EDEEE) in 50 mM HEPES, 10 mM MgCl2, […], 1 mM DTT, 0.0075% Triton, 2% DMSO (total volume 50 μL) for 30 minutes at room temperature. The incubation was stopped by addition of an equal volume of 100 mM EDTA, 4M NaCl. 80 μL of this mixture was added to streptavidin-coated Flashplates (PerkinElmer). Following a wash step, 33P incorporation was quantified on a MicroBeta microplate liquid scintillation counter (PerkinElmer). IC50's were determined by fitting a sigmoidal dose-response curve to the counts obtained at the different concentrations in GraphPad Prism.

T1 sequence (P49841 whole entry): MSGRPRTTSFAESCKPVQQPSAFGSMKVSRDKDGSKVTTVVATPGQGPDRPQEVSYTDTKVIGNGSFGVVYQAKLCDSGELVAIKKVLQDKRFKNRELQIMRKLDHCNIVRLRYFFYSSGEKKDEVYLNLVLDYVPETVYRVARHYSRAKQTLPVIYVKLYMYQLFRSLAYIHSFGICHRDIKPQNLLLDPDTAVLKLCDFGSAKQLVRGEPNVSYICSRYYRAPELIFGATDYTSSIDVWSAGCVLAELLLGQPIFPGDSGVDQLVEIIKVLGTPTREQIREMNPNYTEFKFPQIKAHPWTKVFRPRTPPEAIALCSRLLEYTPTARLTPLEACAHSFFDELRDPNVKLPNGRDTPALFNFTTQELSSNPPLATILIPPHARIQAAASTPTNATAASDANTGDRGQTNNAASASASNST

SMILES | IC50
N#Cc1ccc2[nH]c(O)c(-c3ccc(CN4CC[C@H]5CNC[C@H]54)cn3)c2c1 (stereo in doubt) [Example 5, 3-(5-(((3aS,6aS)-Hexahydropyrrolo[3,4-b]pyrrol-1(2H)-yl)methyl)-pyridin-2-yl)-2-hydroxy-1H-indole-5-carbonitrile] | < 0.1 µM
N#Cc1ccc2[nH]c(O)c(-c3ccc(CN4CC5COCC5C4)cn3)c2c1 (stereo not drawn) [Example 1, 3-(5-((Dihydro-1H-furo[3,4-c]pyrrol-5(3H,6H,6aH)-yl)methyl)pyridin-2-yl)-2-hydroxy-1H-indole-5-carbonitrile] | < 0.1 µM

Next, values leading:

IC50 | SMILES
10 to 100 µM | Oc1[nH]c2ncccc2c1-c1ccc(CN2CCOCC2)cn1 [Example 2, 3-(5-(Morpholinomethyl)-pyridin-2-yl)-1H-pyrrolo[2,3-b]pyridin-2-ol]
0.1 to 10 µM | Oc1[nH]c2cnccc2c1-c1ccc(CN2CCOCC2)cn1 [Example 3, 3-(5-(Morpholinomethyl)-pyridin-2-yl)-1H-pyrrolo[2,3-c]pyridin-2-ol]
< 0.1 µM | Oc1[nH]c2ccc(Br)nc2c1-c1ccc(CN2CCOCC2)cn1 [Example 4, 5-Bromo-3-(5-(morpholinomethyl)-pyridin-2-yl)-1H-pyrrolo[3,2-b]pyridin-2-ol]
0.1 to 10 µM | [O-][n+]1cc(CN2CCOCC2)ccc1-c1c(O)[nH]c2ccc(Br)nc12 [Example 4.1, 2-(5-Bromo-2-hydroxy-1H-pyrrolo[3,2-b]pyridin-3-yl)-5-(morpholinomethyl)-pyridine 1-oxide]
